{"source": "paper PMC8997913", "about": "“Lichen Secondary Metabolites Inhibit the Wnt/β-Catenin Pathway in Glioblastoma Cells and Improve the Anticancer Effects of Temozolomide” (Cells, 2022)", "key": {"[1]": {"parameters": "method as in PMID 34959693, PMID 33916370", "details": "previous studies, ref [5],[14]; cited from earlier work"}, "[2]": {"test_system": "Wnt/β-catenin pathway target genes in T98G cells", "experiment": "qPCR of β-catenin and Wnt target genes, T98G", "format": "cell-based, human", "details": "48 h, mRNA vs DMSO control, single agent", "procedure": "(§1) Based on the MTT test, the lichen secondary metabolite concentrations allowing the survival of more than 70% of cells were chosen for the subsequent experiments. The compounds were added as follows: A-172 cells—atranorin 25 µM, caperatic acid 50 µM, physodic acid 25 µM, squamatic acid 25 µM, salazinic acid 50 µM, and lecanoric acid 100 µM; T98G cells—atranorin 50 µM, caperatic acid 100 µM, physodic acid 25 µM, squamatic acid 50 µM, salazinic acid 100 µM, and lecanoric acid 100 µM; U-138 MG cells—atranorin 25 µM, caperatic acid 50 µM, physodic acid 25 µM, squamatic acid 50 µM, salazinic acid 50 µM, and lecanoric acid 100 µM. As far as the TMZ treatment is concerned, it was added in the concentrations depending on the MGMT expression and methylation status, i.e., TMZ 30 µM was added to the A-172 cell line, and TMZ 100 µM was added to both the T98G and U-138 MG cell lines. In the case of the 2D culture, the cells were treated with the compounds 24 h after seeding, whereas, in regard to 3D culture, 5 days were needed to form spheroids. All subsequent analyses were performed 48 h after treatment.\n(§2) The Universal RNA Purification Kit (EURx, Gdańsk, Poland) was used for total RNA isolation from the A-172, T98G, and U-138 MG cells, and the Revert-Aid First Strand cDNA Synthesis kit (Fermentas, Burlington, ON, Canada) was chosen for cDNA synthesis. Quantitative real-time PCR (qPCR) was performed using Hot FIREPol EvaGreen qPCR Mix Plus (Solis Biodyne, Tartu, Estonia) and LightCycler 96 (Roche Diagnostics GmbH, Mannheim, Germany). Primer sequences were previously published and their synthesis was performed at the Institute of Biochemistry and Biophysics, Warsaw, Poland. The protocol started with 15 min enzyme activation at 95 °C, followed by 40 cycles of 95 °C for 15 s; appropriate annealing temperature for 20 s; 72 °C for 40 s and the final elongation at 72 °C for 5 min. Melting curve analysis was used to confirm the generation of a single amplification product. TATA box-binding protein (TBP), a component of the DNA-binding protein complex TFIID, served as the endogenous RNA control. The results were expressed as N-fold differences in the gene expression relative to the TBP gene. The ΔΔCt method was used for fold-change calculation. All samples were analyzed in triplicate, and the reaction was repeated at least twice."}, "[3]": {"test_system": "Wnt/β-catenin pathway target genes in A-172 cells", "experiment": "qPCR of β-catenin and Wnt target genes, A-172", "format": "cell-based, human", "details": "A-172, 48 h", "procedure": "as §1, §2"}, "A-172 cells": {"test_system": "A-172 cells", "details": "taken from the literature, ref [14]; read-out: IC50 [uM] ± SEM A-172; cited from earlier work"}, "U-138 MG cells [4]": {"test_system": "U-138 MG cells", "experiment": "Apoptosis, caspase-3/7 and 7-AAD flow cytometry, U-138 MG", "format": "cell-based, human", "details": "48 h", "procedure": "as §1\n(§3) The fluorescent-based analysis of apoptosis using Muse® Caspase-3/7 Kit was performed in order to analyze the percentage of live, early, and late apoptotic; total apoptotic; and dead cells in A-172, T98G, and U-138 MG GBM cells treated with lichen secondary metabolites. The principle of the method relies on the measurement of the activity of executioner caspases, i.e., caspase-3 and caspase-7, as well as analyzing the integrity of the cell membrane with the use of a dead cell marker 7-AAD. Cell seeding and treatment followed the same protocol as for cell cycle or ROS generation analysis, while the subsequent procedures were performed according to the manufacturer’s recommendations."}, "[5]": {"experiment": "Parallel artificial membrane permeability assay for the blood-brain barrier (PAMPA-BBB)", "format": "in vitro ADME", "details": "pH 7.4, 4 h, 37 °C, mean ± SEM, n = 3, Pe > 1.5 high, < 1.5 low permeation predicted, read-out: Pe × 10^−6", "procedure": "The parallel artificial membrane permeability assay (PAMPA) for the blood-brain barrier (BBB) (Pion Inc., Billerica, MA, USA) was used to analyze whether the lichen secondary metabolites tested in this study were able to cross the BBB. The stock solutions (5 mg/mL) of tested compounds were prepared using DMSO. Next, the donor solution (24.75 μg/mL) using Prisma buffer (pH = 7.4; Prisma HT, Pion Inc., Billerica, MA, USA) were made. Firstly, 180 μL of the donor solution were added to the donor wells. Then the filter membranes were coated with 5 μL BBB-1 lipid solution (Pion Inc., Billerica, MA, USA) and the acceptor wells were filled with 200 μL BSB (Brain Sink Buffer, Pion Inc., Billerica, MA, USA). The plates were sandwiched together and incubated for 4 h at 37 °C (Thermo Scientific MaxQ 4450, Waltham, MA, USA). The results were determined by spectroscopic analysis (Multiskan GO microplate reader, Waltham, MA, USA), with the appropriate wavelength for a given compound (240 nm for […] salazinic acid, 250 nm for atranorin and squamatic acid, 263 nm for physodic acid, and 270 nm for lecanoric acid). […] Pe is the effective permeability coefficient (cm/s), VD-donor volume, VA-acceptor volume, Ceq-equilibrium concentration, Ceq=CD×VD+CA×VA/VD+VA , S-membrane area, and t-incubation time (in seconds). […] Samples were analyzed in triplicate, and the average was reported."}, "[6]": {"test_system": "A375 melanoma cancer cells", "parameters": "method as in PMID 28012710", "details": "ref [33]; cited from earlier work"}, "T98G cells [7]": {"test_system": "T98G cells", "details": "taken from the literature, ref [14]; read-out: IC50 [uM] ± SEM T98G; cited from earlier work"}, "[8]": {"test_system": "Wnt/β-catenin pathway target genes in U-138 MG cells", "experiment": "qPCR of β-catenin and Wnt target genes, U-138 MG", "format": "cell-based, human", "details": "48 h; for NEDD9 expression: TMZ 100 µM", "procedure": "as §1, §2"}, "U-138 MG cells [9]": {"test_system": "U-138 MG cells", "parameters": "method as in PMID 33916370", "details": "taken from the literature, ref [14]; read-out: IC50 [uM] ± SEM U-138 MG; cited from earlier work"}, "T98G cells [10]": {"test_system": "T98G cells", "experiment": "ROS (superoxide) generation, flow cytometry, T98G", "format": "cell-based, human", "details": "48 h", "procedure": "(§4) Based on the MTT test, the lichen secondary metabolite concentrations allowing the survival of more than 70% of cells were chosen for the subsequent experiments. The compounds were added as follows: A-172 cells—atranorin 25 µM, caperatic acid 50 µM, physodic acid 25 µM, squamatic acid 25 µM, salazinic acid 50 µM, and lecanoric acid 100 µM; T98G cells—atranorin 50 µM, caperatic acid 100 µM, physodic acid 25 µM, squamatic acid 50 µM, salazinic acid 100 µM, and lecanoric acid 100 µM; U-138 MG cells—atranorin 25 µM, caperatic acid 50 µM, physodic acid 25 µM, squamatic acid 50 µM, salazinic acid 50 µM, and lecanoric acid 100 µM. […]\nThe intracellular detection of superoxide radicals was detected by flow cytometric analysis after the staining with dihydroethidium, using The Muse® Oxidative Stress Kit (Merck, Darmstadt, Germany). Briefly, 100,000 cells per well were seeded on 6-well plates and after a 24 h incubation they were treated with the analyzed lichen secondary metabolites in the concentrations allowing >70% of cell survival; cells treated with DMSO were used as the negative control. […] The obtained data were evaluated using Muse® Analysis Software ver. […]"}, "T98G cells [11]": {"test_system": "T98G cells", "experiment": "Apoptosis, caspase-3/7 and 7-AAD flow cytometry, T98G", "format": "cell-based, human", "procedure": "as §1, §3"}, "[12]": {"test_system": "T98G cells-derived spheroids", "experiment": "Microarray expression study of T98G spheroids", "format": "cell-based, human", "details": "48 h, TMZ 100 µM, FC > abs. 2", "procedure": "Moreover, the 3D culture of the T98G cell line was also established. The cells were cultured in ultra-low attachment microplates (Corning®, Corning, NY, USA) (1000 cell per well) to form spheroids. The standard medium was supplemented with Corning® Matrigel® Matrix for Organoid Culture (3.5%) (Corning®, Corning, NY, USA) and epidermal growth factor—EGF (10 ng/mL) (Stemcell Technologies, Vancouver, BC, Canada). Both 2D and 3D cell cultures were grown in a standard humidified incubator (Memmert, Schwabach, Germany) at 37 °C in 5% CO2 and 95% air atmosphere.\nas §4\nThe obtained CEL files were further analyzed using the R statistical language and Bioconductor package, including the relevant Bioconductor libraries. […]"}, "[13]": {"details": "mRNA vs DMSO control, single agent, (TMZ 30 µM)"}, "[14]": {"details": "mRNA vs DMSO control, single agent"}}}
{"smiles": "CC(=O)C1=C(O)C=C2Oc3c(C(C)=O)c(O)c(C)c(O)c3[C@]2(C)C1=O", "note": "[(−)-usnic acid]", "values": [{"measurement": "ability to cross the blood-brain barrier", "setting": "[1]", "result": "can cross the blood-brain barrier"}]}
{"smiles": "Cn1ncnc2c(=O)n(C)c(=O)nc1-2", "note": "[PKF118-310, reference compound]", "values": [{"measurement": "c-MYC expression", "setting": "[2]", "result": "did not diminish"}, {"measurement": "BIRC5 expression", "setting": "[2]; TMZ 100 µM", "result": "downregulated"}, {"measurement": "c-MYC expression", "setting": "[3]; [13]", "result": "did not diminish"}]}
{"smiles": "CCCCCC(=O)Cc1cc(O)cc2c1C(=O)Oc1cc(O)c(C(=O)O)c(CCCCC)c1O2", "note": "[Physodic acid]", "values": [{"measurement": "IC50", "setting": "A-172 cells", "result": "42.4 ± 1.25", "unit": "µM"}, {"measurement": "effect on apoptosis", "setting": "U-138 MG cells [4]", "result": "anti-apoptotic effect"}, {"measurement": "Papp at 4 h, 24.75 µg/mL", "setting": "[5]", "result": "3.9 ± 0.2", "unit": "×10⁻⁶ cm/s"}, {"measurement": "apoptosis induction", "setting": "[6]", "result": "activated an apoptotic process"}, {"measurement": "IC50", "setting": "T98G cells [7]", "result": "50.6 ± 1.09", "unit": "µM"}, {"measurement": "expression of the Wnt target genes", "setting": "[8]; co-treatment with TMZ 100 µM", "result": "huge downregulatory effect"}, {"measurement": "Axin2 expression", "setting": "[8]; [14]", "result": "decreased"}, {"measurement": "CCND1 expression", "setting": "[8]; [14]", "result": "downregulated CCND1 expression by around half"}, {"measurement": "NEDD9 expression", "setting": "[8]; [14]", "result": "upregulated"}, {"measurement": "c-MYC expression", "setting": "[2]", "result": "downregulated"}, {"measurement": "BIRC5 expression", "setting": "[2]; TMZ 100 µM", "result": "downregulated"}, {"measurement": "CCND1 expression", "setting": "[3]; co-treatment with TMZ 30 µM", "result": "upregulation"}, {"measurement": "NEDD9 expression", "setting": "[3]; [14]", "result": "downregulated"}, {"measurement": "IC50", "setting": "U-138 MG cells [9]", "result": "45.7 ± 4.2", "unit": "µM"}, {"measurement": "ability to cross the blood-brain barrier", "setting": "[1]", "result": "can cross the blood-brain barrier"}, {"measurement": "oxidative stress (superoxide) induction", "setting": "T98G cells [10]", "result": "induce oxidative stress"}, {"measurement": "number of apoptotic cells vs control", "setting": "T98G cells [11]; 48 h, topotecan 100 nM", "result": "significant increase"}, {"measurement": "apoptotic cells detected", "setting": "T98G cells [11]; 48 h treatment", "result": "~80", "unit": "%"}]}
{"smiles": "Cn1nnc2c(C(N)=O)ncn2c1=O", "note": "[TMZ, temozolomide]", "values": [{"measurement": "NEDD9 expression", "setting": "[8]; [14]", "result": "downregulated"}, {"measurement": "Axin2 expression", "setting": "[2]; TMZ 100 µM", "result": "downregulation"}, {"measurement": "BIRC5 expression", "setting": "[2]; TMZ 100 µM", "result": "downregulation"}, {"measurement": "number of significantly downregulated genes vs control", "setting": "[12]", "result": 46}, {"measurement": "number of significantly upregulated genes vs control", "setting": "[12]", "result": 15}, {"measurement": "Axin2 expression", "setting": "[3]; [13]", "result": "upregulated"}, {"measurement": "c-MYC expression", "setting": "[3]; [13]", "result": "upregulated"}]}
{"smiles": "COc1cc(C)c(C(=O)Oc2cc(C)c(C(=O)O)c(O)c2)c(O)c1", "note": "[evernic acid]", "values": [{"measurement": "ability to cross the blood-brain barrier", "setting": "[1]", "result": "can cross the blood-brain barrier"}]}
